Source: patent publication US5625046A, “Hydroxyl projecting groups for organic synthesis” (King's College London, priority 1986, dated 1997)

Key:
[1] = removal of 2'-protecting groups by acidic hydrolysis at 25° C. (HPLC); format: physicochemical; details: for t0.99 (calculated time for 99% removal of the 2'-protecting group) / t1/2 (half-time): 25° C.; for t1/2 (half-time): hydrochloric acid or 0.2M glycine hydrochloride buffer; for rate of hydrolysis, times faster at pH 1.0 than at pH 3.0: pH 1.0 vs pH 3.0
Procedure: The removal of 2'-protecting groups by acidic hydrolysis at 25° C. was then investigated. Substrates as indicated below (ca 0.5-1.0 mg) were dissolved in 3.0 ml of hydrochloric acid or 0.2M glycine hydrochloride buffer at the specified pH. Aliquots (0.2 ml) of the reaction solutions were removed after suitable intervals of time, neutralized with triethylammonium bicarbonate and analyzed by HPLC (Jones "APEX ODS" column).
(b) t0.99 =calculated time for 99% removal of the 2'-protecting group.

[2] = concomitant removal of 2'-O-Ctmp group during removal of 5'-O-(9-phenylxanthen-9-yl) group (trifluoroacetic acid/pyrrole in dichloromethane); format: physicochemical; details: in the time required for complete removal of the 5'-O-(9-phenylxanthen-9-yl) group, 5.5 mol. equiv. trifluoroacetic acid, 16.5 mol. equiv. pyrrole, room temperature
Procedure: Following the above scheme, the latter compound was then converted by the conventional two-step procedure into the fully-protected dinucleoside phosphate in ca 83% overall yield. When a 0.025M solution of the fully-protected dinucleoside phosphate in dichloromethane was treated with 5.5 mol. equiv. of trifluoroacetic acid and 16.5 mol. equiv. of pyrrole for 30 seconds at room temperature, no starting material remained and the partially-protected dinucleoside phosphate was isolated from the products In 95.5% yield. When the acid treatment of the fully-protected dinucleoside phosphate was extended to 30 minutes under the same conditions, the partially-protected dinucleoside phosphate was isolated in 85% yield. From such results, it may be estimated that less than 0.2% concomitant removal of the 2'-O-Ctmp group occurs in the time required for the complete removal of the 5'-O-(9-phenylxanthen-9-yl) protecting group.

## COC1(O[C@@H]2[C@H](O)[C@@H](CO)O[C@H]2n2ccc(=O)[nH]c2=O)CCN(c2ccc(C)cc2Cl)CC1
[1]; between pH 0.5 and 1.5
  rate of hydrolysis, dependence on pH: virtually unchanged
[1]; pH 0.5
  t0.99 (calculated time for 99% removal of the 2'-protecting group): 223 min
  t1/2 (half-time): 33.5 min
[1]; pH 1.0
  t0.99 (calculated time for 99% removal of the 2'-protecting group): 236 min
  t1/2 (half-time): 35.5 min
[1]
  rate of hydrolysis, times faster at pH 1.0 than at pH 3.0: ~2.25 times
[1]; pH 1.5
  t0.99 (calculated time for 99% removal of the 2'-protecting group): 233 min
  t1/2 (half-time): 35 min
[1]; pH 2.0
  t0.99 (calculated time for 99% removal of the 2'-protecting group): 272 min
  t1/2 (half-time): 41 min
[1]; pH 2.5
  t0.99 (calculated time for 99% removal of the 2'-protecting group): 345 min
  t1/2 (half-time): 52 min
[1]; pH 3.0
  t0.99 (calculated time for 99% removal of the 2'-protecting group): 532 min
  t1/2 (half-time): 80 min
[1]; pH 3.5
  t0.99 (calculated time for 99% removal of the 2'-protecting group): 1120 min
  t1/2 (half-time): 168 min

## COC1(O[C@@H]2[C@H](OP(=O)(O)OC[C@H]3O[C@@H](n4ccc(=O)[nH]c4=O)[C@H](O)[C@@H]3O)[C@@H](CO)O[C@H]2n2ccc(=O)[nH]c2=O)CCN(c2ccc(C)cc2Cl)CC1
[1]
  effect of vicinal phosphotriester group on acid-catalyzed hydrolysis of Ctmp (in words): facilitates the acid-catalyzed hydrolysis
[1]; pH 2.0
  t0.99 (calculated time for 99% removal of the 2'-protecting group): 143 min
  t1/2 (half-time): 21.5 min
[1]; pH 2.5
  t0.99 (calculated time for 99% removal of the 2'-protecting group): 156 min
  t1/2 (half-time): 23.5 min

## COC1(O[C@@H]2[C@H](OP(=O)(OC[C@H]3O[C@@H](n4ccc(=O)[nH]c4=O)[C@H](OC(C)=O)[C@@H]3OC(C)=O)Oc3ccccc3Cl)[C@@H](COC3(c4ccccc4)c4ccccc4Oc4ccccc43)O[C@H]2n2ccc(=O)[nH]c2=O)CCN(c2ccc(C)cc2Cl)CC1 (some centres unmarked) [fully-protected dinucleoside phosphate]
[2]
  concomitant removal of the 2'-O-Ctmp group: less than 0.2%

## COC1(O[C@@H]2[C@H](O)[C@@H](CO)O[C@H]2n2ccc(=O)[nH]c2=O)CCOCC1 [reference compound]
[1]; pH 1.0
  t0.99 (calculated time for 99% removal of the 2'-protecting group): 6 min
  t1/2 (half-time): 0.9 min
[1]
  rate of hydrolysis, times faster at pH 1.0 than at pH 3.0: 140 times
[1]; pH 2.0
  t0.99 (calculated time for 99% removal of the 2'-protecting group): 136 min
  t1/2 (half-time): 20.5 min
[1]; pH 3.0
  t0.99 (calculated time for 99% removal of the 2'-protecting group): 837 min
  t1/2 (half-time): 126 min
[1]; with decreasing pH
  rate of hydrolysis, dependence on pH (in words): increases sharply with decreasing pH

## COC1(O[C@@H]2[C@H](O)[C@@H](CO)O[C@H]2n2ccc(=O)[nH]c2=O)CCN(c2ccccc2)CC1 [reference compound]
[1]
  stability of protecting group for the desired purposes (in words): too stable
[1]; pH 1.0
  t0.99 (calculated time for 99% removal of the 2'-protecting group): 3300 min
  t1/2 (half-time): 498 min
[1]; pH 2.0
  t0.99 (calculated time for 99% removal of the 2'-protecting group): 4380 min
  t1/2 (half-time): 660 min
